Laboratory results as given in ChEMBL document CHEMBL5576149, “Discovery of Potent STT3A/B Inhibitors and Assessment of Their Multipathogen Antiviral Potential and Safety” (J Med Chem, 2024).
Converted amounts (≈) assume the structure as drawn. The source made the active and inactive calls. The calls are words filed in the database; no cut-off is given here.

What was measured:
[1] = Cardiotoxicity in human iPSC-CM cells assessed as increase in field potential duration incubated for 48 hr by multi-electrode array analysis; format: toxicity, cell-based
[2] = Cardiotoxicity in human iPSC-CM cells assessed as decrease in spike amplitude incubated for 48 hr by multi-electrode array analysis; format: toxicity, cell-based
[3] = Solubility of compound in FaSSIF; format: ADME
Human respirovirus 3 = test: Antiviral activity against Human parainfluenza virus 3 JS infected in human A549 cells assessed as reduction in viral proliferation incubated for 44 hrs by Hoechst dye based fluorescence analysis; format: functional, organism-based; conditions: Human respirovirus 3, JS, A549, 44 h
[4] = Cardiotoxicity in human iPSC-CM cells assessed as decrease in spike amplitude at 3 uM incubated for 1 hr by multi-electrode array analysis; format: toxicity, cell-based; design: scale not given: the % may be the effect or the level left
Influenza A virus [5] = test: Antiviral activity against influenza A virus H1N1 A/Puerto Rico/8/1934 infected in MDCK cells assessed as reduction in viral replication measured after 30 hrs of post-infection by RT-qPCR analysis relative to control; format: functional; design: scale not given: the % may be the effect or the level left
[6] = Bioavailability in CD1 mouse at 2 mg/kg,po or 1 mg/kg,iv administrated upto 60 mins by LC-MS/MS analysis; format: ADME, organism-based; conditions: in vivo
[7] = Unbound clearance in human liver microsomes at 0.5 uM incubated upto 45 mins; format: ADME, Microsome; conditions: 0.75 h
[8] = Unbound clearance in CD1 mouse at 2 mg/kg,po or 1 mg/kg,iv administrated upto 60 mins by LC-MS/MS analysis; format: ADME, organism-based; conditions: in vivo, 1 h
[9] = Neurotoxicity in human iPSC cells co-cultured with human astrocyte assessed as reduction in neuronal firing rate at 0.37 to 30 uM incubated for 1 hr by multi-electrode array analysis; format: toxicity, cell-based; conditions: dose 0.37-30 µM
Human coronavirus 229E = test: Antiviral activity against Human coronavirus 229E infected in human MRC5 cells assessed as reduction in viral growth incubated for 68 hrs by CellTiter-Glo luminescence assay; format: functional, organism-based; conditions: MRC5, 68 h
[10] = Cytotoxicity against human MRC5 cells by luminescence-based cell viability assay; format: toxicity
[11] = molecular target: T1, Voltage-gated inwardly rectifying potassium channel KCNH2 (Homo sapiens, UniProt Q12809); test: Inhibition of hERG expressed in CHO cells by QPatch voltage clamp assay; format: toxicity, cell-based
[12] = MRT in CD1 mouse at 2 mg/kg,po or 1 mg/kg,iv administrated upto 60 mins by LC-MS/MS analysis; format: ADME, organism-based; conditions: in vivo
[13] = Cardiotoxicity in human iPSC-CM cells assessed as increase in field potential duration at 370 nM incubated for 48 hr by multi-electrode array analysis; format: toxicity, cell-based; conditions: 0.37 µM
[14] = Inhibition of STT3A/STT3B mediated N-linked glycosylation in STT3A knockout human H1-HeLa cells stably transduced with Halo3N-ER sequence by measuring effective concentration incubated for 24 hrs by Western blotting analysis; format: cell-based
[15] = Cytotoxicity against human Hepatocyte cultured as 3D spheroids incubated for 14 days by CellTiter-Glo luminescence assay; format: toxicity, cell-based; conditions: hepatocytes cultured as 3D spheroids
[16] = Unbound clearance in rat liver microsomes at 0.5 uM incubated upto 45 mins; format: ADME, Microsome; conditions: 0.75 h
H1-HeLa [17] = test: Inhibition of STT3A/STT3B in human H1-HeLa cells assessed as upregulation of MANF gene expression incubated for 24 hrs; format: cell-based
H1-HeLa [18] = test: Inhibition of STT3A/STT3B in human H1-HeLa cells assessed as upregulation of DERL3 gene expression incubated for 24 hrs; format: cell-based
[19] = Chromatographic hydrophobicity index, logD of the compound at pH 7.4; format: physicochemical; conditions: buffer
[20] = Cardiotoxicity in human iPSC-CM cells assessed as decrease in beat period at 30 uM incubated for 1 hr by multi-electrode array analysis; format: toxicity, cell-based
[21] = molecular target: Sodium channel protein type 5 subunit alpha (Homo sapiens, UniProt Q14524); test: Inhibition of Nav1.5 (unknown origin); format: toxicity
A549 [22] = test: Cytotoxicity against human A549 cells; format: functional
[23] = Cardiotoxicity in human iPSC-CM cells assessed as decrease in spike amplitude at 370 nM incubated for 48 hr by multi-electrode array analysis; format: toxicity, cell-based; conditions: 0.37 µM
[24] = Cardiotoxicity in human iPSC-CM cells assessed as increase in field potential duration at 10 uM incubated for 1 hr by multi-electrode array analysis; format: toxicity, cell-based
H1-HeLa [25] = test: Inhibition of STT3A/STT3B in human H1-HeLa cells assessed as upregulation of […] gene expression incubated for 24 hrs; format: cell-based
SARS-CoV-2 = test: Antiviral activity against SARS-CoV-2 infected in human A549 cells assessed as reduction in viral growth incubated for 24 hrs by Nano-Glo reagent based analysis; format: functional, organism-based; conditions: Severe acute respiratory syndrome coronavirus 2, A549, 24 h
H1-HeLa [26] = test: Inhibition of STT3A/STT3B in human H1-HeLa cells assessed as upregulation of SDF2L1 gene expression incubated for 24 hrs; format: cell-based
Influenza A virus [27] = test: Antiviral activity against influenza A virus H1N1 A/Puerto Rico/8/1934 infected in MDCK cells assessed as reduction in viral replication measured after 3 hrs of post-infection by RT-qPCR analysis relative to control; format: functional; design: scale not given: the % may be the effect or the level left
[28] = Neurotoxicity in human iPSC cells co-cultured with human astrocyte assessed as inhibition of cell growth at 300 nM incubated for 48 hr by multi-electrode array analysis relative to control; format: toxicity, cell-based; conditions: iPSC cells co-cultured with astrocytes
[29] = Cardiotoxicity in human iPSC-CM cells assessed as decrease in beat period at 1 uM incubated for 48 hr by multi-electrode array analysis; format: toxicity, cell-based
[30] = Inhibition of STT3A/STT3B mediated N-linked glycosylation in human H1-HeLa cells stably transduced with ERluc by measuring effective concentration of inhibition incubated for 18 hrs by One-Glo luciferase reporter assay; format: cell-based
[31] = molecular target: Voltage-dependent L-type calcium channel subunit alpha-1C (Homo sapiens, UniProt Q13936); test: Inhibition of Cav1.2 (unknown origin) expressed in HEK cells by manual patch clamp assay; format: toxicity, cell-based
[32] = Volume of distribution at steady state in CD1 mouse at 2 mg/kg,po or 1 mg/kg,iv administrated upto 60 mins by LC-MS/MS analysis; format: ADME, organism-based; conditions: in vivo, 1 h
Influenza A virus [33] = test: Antiviral activity against influenza A virus H1N1 A/Puerto Rico/8/1934 infected in MDCK cells assessed as reduction in viral proliferation incubated for 24 hrs by FFU assay; format: functional, organism-based; conditions: H1N1 A/Puerto Rico/8/1934, MDCK
[34] = Inhibition of STT3A/STT3B mediated N-linked glycosylation in STT3B knockout human H1-HeLa cells stably transduced with Halo3N-ER sequence by measuring effective concentration incubated for 24 hrs by Western blotting analysis; format: cell-based
A549 [35] = test: Cytotoxicity against human A549 cells by fluorescent cell imaging assay; format: functional
[36] = Neurotoxicity in human iPSC cells co-cultured with human astrocyte assessed as […] incubated for 1 hr by multi-electrode array analysis; format: toxicity, cell-based; conditions: iPSC cells co-cultured with astrocytes
[37] = Unbound clearance in mouse liver microsomes at 0.5 uM incubated upto 45 mins; format: ADME, Microsome; conditions: 0.75 h
[38] = molecular target: T1, Voltage-gated inwardly rectifying potassium channel KCNH2; test: Inhibition of HA-tagged hERG expressed in human U2OS cells assessed as reduction in ERG protein at 3 uM incubated for 24 hrs by Western blotting analysis; format: toxicity, cell-based

T1 sequence (Q12809 whole entry): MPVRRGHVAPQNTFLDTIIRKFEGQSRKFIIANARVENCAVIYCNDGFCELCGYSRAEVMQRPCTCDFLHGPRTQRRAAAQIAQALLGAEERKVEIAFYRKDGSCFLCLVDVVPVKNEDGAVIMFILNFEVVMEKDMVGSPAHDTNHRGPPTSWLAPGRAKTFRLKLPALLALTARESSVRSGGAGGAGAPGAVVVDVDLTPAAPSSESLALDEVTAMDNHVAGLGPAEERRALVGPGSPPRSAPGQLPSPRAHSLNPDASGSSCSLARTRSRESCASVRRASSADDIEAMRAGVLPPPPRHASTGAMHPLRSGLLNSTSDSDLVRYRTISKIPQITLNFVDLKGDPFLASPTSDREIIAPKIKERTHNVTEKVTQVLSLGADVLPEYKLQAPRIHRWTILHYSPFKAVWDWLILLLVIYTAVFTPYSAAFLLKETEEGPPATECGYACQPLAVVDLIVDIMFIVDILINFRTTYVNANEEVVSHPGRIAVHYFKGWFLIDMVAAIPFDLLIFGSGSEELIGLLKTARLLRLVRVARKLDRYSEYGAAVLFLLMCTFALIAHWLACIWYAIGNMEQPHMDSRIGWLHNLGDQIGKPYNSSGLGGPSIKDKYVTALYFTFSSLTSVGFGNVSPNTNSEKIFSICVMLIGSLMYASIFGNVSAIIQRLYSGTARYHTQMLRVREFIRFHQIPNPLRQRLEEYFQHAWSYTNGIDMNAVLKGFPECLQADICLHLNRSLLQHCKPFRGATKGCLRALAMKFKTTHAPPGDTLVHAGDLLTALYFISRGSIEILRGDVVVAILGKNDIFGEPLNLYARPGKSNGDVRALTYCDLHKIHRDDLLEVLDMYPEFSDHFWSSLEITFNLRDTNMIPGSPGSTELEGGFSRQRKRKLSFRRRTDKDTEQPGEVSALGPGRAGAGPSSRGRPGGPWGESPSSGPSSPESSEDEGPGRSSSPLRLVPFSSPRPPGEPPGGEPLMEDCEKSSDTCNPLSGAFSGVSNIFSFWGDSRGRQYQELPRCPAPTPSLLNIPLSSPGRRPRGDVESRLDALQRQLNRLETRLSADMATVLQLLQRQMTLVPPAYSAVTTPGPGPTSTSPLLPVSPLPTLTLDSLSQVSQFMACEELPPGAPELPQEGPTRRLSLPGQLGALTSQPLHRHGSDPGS
Chain of Sodium channel protein type 5 subunit alpha (Q14524 whole entry): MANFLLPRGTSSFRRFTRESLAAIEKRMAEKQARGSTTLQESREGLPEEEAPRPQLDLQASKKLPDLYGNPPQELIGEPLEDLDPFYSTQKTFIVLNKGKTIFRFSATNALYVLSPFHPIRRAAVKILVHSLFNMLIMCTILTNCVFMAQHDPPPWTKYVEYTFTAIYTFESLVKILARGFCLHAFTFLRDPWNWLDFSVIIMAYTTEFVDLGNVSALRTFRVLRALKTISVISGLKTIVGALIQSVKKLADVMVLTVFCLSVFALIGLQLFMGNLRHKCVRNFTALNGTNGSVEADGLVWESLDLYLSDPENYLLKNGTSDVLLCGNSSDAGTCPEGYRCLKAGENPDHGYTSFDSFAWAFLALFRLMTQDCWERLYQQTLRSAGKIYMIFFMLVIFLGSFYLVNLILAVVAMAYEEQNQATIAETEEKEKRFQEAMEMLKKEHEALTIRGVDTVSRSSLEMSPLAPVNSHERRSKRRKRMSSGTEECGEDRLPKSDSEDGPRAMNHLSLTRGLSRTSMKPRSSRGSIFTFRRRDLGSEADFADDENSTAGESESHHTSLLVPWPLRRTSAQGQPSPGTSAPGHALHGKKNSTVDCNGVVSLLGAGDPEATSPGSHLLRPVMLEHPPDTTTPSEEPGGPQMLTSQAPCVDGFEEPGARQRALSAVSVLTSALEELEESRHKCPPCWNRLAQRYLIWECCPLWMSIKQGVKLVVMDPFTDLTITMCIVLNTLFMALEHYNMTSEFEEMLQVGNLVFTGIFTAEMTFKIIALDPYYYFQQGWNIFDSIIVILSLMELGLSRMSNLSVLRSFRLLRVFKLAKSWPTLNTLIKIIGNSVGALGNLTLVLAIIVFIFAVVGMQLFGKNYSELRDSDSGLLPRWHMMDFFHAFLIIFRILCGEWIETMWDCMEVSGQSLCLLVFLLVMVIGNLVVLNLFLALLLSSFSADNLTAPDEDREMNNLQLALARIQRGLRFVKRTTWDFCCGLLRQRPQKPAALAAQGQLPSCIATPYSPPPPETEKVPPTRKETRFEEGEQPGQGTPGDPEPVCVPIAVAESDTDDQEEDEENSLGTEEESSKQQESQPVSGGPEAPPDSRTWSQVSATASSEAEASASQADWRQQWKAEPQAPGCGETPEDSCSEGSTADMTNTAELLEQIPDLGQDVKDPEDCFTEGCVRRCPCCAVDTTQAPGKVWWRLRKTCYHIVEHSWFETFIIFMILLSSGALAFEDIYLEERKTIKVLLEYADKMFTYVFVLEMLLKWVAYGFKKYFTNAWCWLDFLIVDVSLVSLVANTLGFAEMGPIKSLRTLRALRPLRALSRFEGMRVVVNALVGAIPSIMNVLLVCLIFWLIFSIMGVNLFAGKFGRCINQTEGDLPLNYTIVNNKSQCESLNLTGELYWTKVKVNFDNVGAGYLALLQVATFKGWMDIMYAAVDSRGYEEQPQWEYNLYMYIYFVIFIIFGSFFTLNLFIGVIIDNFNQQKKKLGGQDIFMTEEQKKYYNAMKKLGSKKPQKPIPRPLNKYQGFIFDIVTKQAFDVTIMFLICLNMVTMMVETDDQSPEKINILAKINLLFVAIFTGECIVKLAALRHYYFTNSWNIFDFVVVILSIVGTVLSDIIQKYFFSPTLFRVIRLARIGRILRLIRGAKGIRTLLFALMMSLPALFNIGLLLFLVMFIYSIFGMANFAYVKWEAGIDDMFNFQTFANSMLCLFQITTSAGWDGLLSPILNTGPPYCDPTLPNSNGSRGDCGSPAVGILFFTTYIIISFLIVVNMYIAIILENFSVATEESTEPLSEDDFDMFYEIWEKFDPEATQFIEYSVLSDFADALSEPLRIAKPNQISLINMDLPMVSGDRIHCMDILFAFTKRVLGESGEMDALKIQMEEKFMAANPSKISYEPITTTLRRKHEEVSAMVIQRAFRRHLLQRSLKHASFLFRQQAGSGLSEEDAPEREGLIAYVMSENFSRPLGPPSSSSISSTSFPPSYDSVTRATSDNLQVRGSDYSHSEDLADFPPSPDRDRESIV

Q: With `C=C[C@H]1C[N@@]2CC[C@H]1C[C@@H]2[C@@H](O)c1ccnc2ccc(OC)cc12` [QUINIDINE] as the molecule, how does the Activity [1] read?
A: The Activity was “Non-Toxic”.

Q: And the Activity [2]?
A: The Activity was “Non-Toxic”.

Q: Which solubility [3] does the source give for `CN(C)S(=O)(=O)c1ccc(N2CC[C@H](O)C2)c(-c2cc3ccccc3[nH]2)c1` here?
A: The solubility was 53 µg/mL (≈ 137 µM).

Q: And the EC50 (Human respirovirus 3)?
A: The EC50 was 187 nM.

Q: And the Activity [4]?
A: The Activity was 20%.

Q: And the Activity (Influenza A virus [5])?
A: Its Activity is 60%.

Q: What about the bioavailability [6] of the same molecule?
A: Its bioavailability is 28%.

Q: And the CL free [7]?
A: The CL free was 158 mL/min/kg.

Q: What about the CL free [8] of the same molecule?
A: The CL free was 2268 mL/min/kg.

Q: And the Activity [9]?
A: The Activity was “Toxic”.

Q: And the EC50 (Human coronavirus 229E)?
A: The EC50 was 30 nM.

Q: And the CC50 [10]?
A: Its CC50 is 984 nM.

Q: What about the IC50 [11] of the same molecule?
A: Its IC50 is ~20000 nM.

Q: And the MRT [12]?
A: Its MRT is 1 h.

Q: What about the Activity [13] of the same molecule?
A: The Activity was “Toxic”.

Q: And the EC50 [14]?
A: Its EC50 is 63 nM.

Q: What about the IC50 at 14 days [15] of the same molecule?
A: Its IC50 at 14 days is < 1200 nM.

Q: What about the CL free [16] of the same molecule?
A: Its CL free is 3761 mL/min/kg.

Q: And the inhibition (H1-HeLa [17])?
A: The inhibition was “Active”.

Q: What about the inhibition (H1-HeLa [18]) of the same molecule?
A: The inhibition was “Active”.

Q: And the chromatographic logD [19]?
A: Its chromatographic logD is 4.8.

Q: And the Activity [20]?
A: The Activity was “Toxic”.

Q: What about the IC50 [21] of the same molecule?
A: Its IC50 is ~20000 nM.

Q: And the CC50 (A549 [22])?
A: Its CC50 is 2750 nM.

Q: And the Activity [23]?
A: Its Activity is “Toxic”.

Q: What about the Activity [24] of the same molecule?
A: Its Activity is 20%.

Q: What about the inhibition (H1-HeLa [25]) of the same molecule?
A: The inhibition was “Active”.

Q: What about the EC50 (SARS-CoV-2) of the same molecule?
A: Its EC50 is 62 nM.

Q: And the inhibition (H1-HeLa [26])?
A: The inhibition was “Active”.

Q: And the Activity (Influenza A virus [27])?
A: Its Activity is >90%.

Q: And the inhibition at 48 h, 0.3 µM [28]?
A: The inhibition at 48 h, 0.3 µM was 75%.

Q: And the Activity [29]?
A: The Activity was “Toxic”.

Q: What about the EC50 [30] of the same molecule?
A: Its EC50 is 23 nM.

Q: And the IC50 [31]?
A: The IC50 was > 100000 nM.

Q: And the Vdss [32]?
A: Its Vdss is 4.3 L/kg.

Q: What about the EC50 (Influenza A virus [33]) of the same molecule?
A: The EC50 was 297 nM.

Q: And the EC50 [34]?
A: The EC50 was 41 nM.

Q: What about the CC50 (A549 [35]) of the same molecule?
A: The CC50 was 831 nM.

Q: And the IC50 at 1 hr [36]?
A: Its IC50 at 1 hr is 23000 nM.

Q: Which solubility [3] does the source give for `CCS(=O)(=O)c1ccc(N2CC[C@H](O)C2)c(-c2cc3ccccc3[nH]2)c1` here?
A: Its solubility is 130 µg/mL (≈ 351 µM).

Q: What about the bioavailability [6] of the same molecule?
A: The bioavailability was 33%.

Q: And the CL free [7]?
A: The CL free was < 19 mL/min/kg.

Q: What about the CL free [8] of the same molecule?
A: The CL free was 706 mL/min/kg.

Q: What about the EC50 (Human coronavirus 229E) of the same molecule?
A: Its EC50 is 58 nM.

Q: What about the CC50 [10] of the same molecule?
A: Its CC50 is 4110 nM.

Q: And the MRT [12]?
A: The MRT was 1.4 h.

Q: What about the CL free [37] of the same molecule?
A: The CL free was < 49 mL/min/kg.

Q: What about the chromatographic logD [19] of the same molecule?
A: Its chromatographic logD is 4.3.

Q: And the CC50 (A549 [22])?
A: The CC50 was 3800 nM.

Q: What about the EC50 (SARS-CoV-2) of the same molecule?
A: Its EC50 is 116 nM.

Q: What about the EC50 [30] of the same molecule?
A: Its EC50 is 36 nM.

Q: And the Vdss [32]?
A: Its Vdss is 2.7 L/kg.

Q: What about the EC50 (Influenza A virus [33]) of the same molecule?
A: Its EC50 is 307 nM.

Q: Which results are given for `O=C([C@@H]1CCN1S(=O)(=O)c1ccc(N2CCC(F)(F)C2)c(-c2cc3ccccc3[nH]2)c1)N1CCOCC1`?
A: CL free [7]: > 2851 mL/min/kg; IC50 at 14 days [15]: < 1200 nM; CL free [16]: > 4854 mL/min/kg; chromatographic logD [19]: 5.3; inhibition (INH) [38]: Active; EC50 [30]: 5 nM
